This test has as its system influenza virus. In kind it is cell-based.

Entries after “also recorded” stand apart in the source; their conditions may differ.

Turning to `N#Cc1cc2c(OCC(O)CN3CCN(C(c4ccccc4)c4ccccc4)CC3)cccc2[nH]1` (centres unmarked) [SDZ-201106], the “susceptibility of passaged versus unpassaged virus (resistance)” value is reported as “No difference; also recorded: emergence of resistant viruses was not observed”.

As to `CC(=O)c1c(O)c(C)c(O)c(Cc2c(O)c3c(c(C(=O)/C=C/c4ccccc4)c2O)OC(C)(C)C=C3)c1O` [rottlerin], the “susceptibility of passaged versus unpassaged virus (resistance)” value is “No difference; also recorded: emergence of resistant viruses was not observed”.

The record behind these values is patent publication US8629283B2, “Compounds that modulate negative-sense, single-stranded RNA virus replication and uses thereof” (Icahn School of Medicine at Mount Sinai, priority 2008, dated 2014).
